Laboratory results published in ChEMBL document CHEMBL3885881, “DrugMatrix”.

Organism: Rattus norvegicus
Experiment: DrugMatrix - Regimen: Daily Repeat
Assay type: toxicity, organism-based, Sprague-Dawley
Design: regimen Daily Repeat, gender Male, age 6-8 weeks
Conditions: in vivo, po, route oral GAVAGE, […]; for ABSOLUTE BASOPHIL / ABSOLUTE EOSINOPHIL / ABSOLUTE LYMPHOCYTE / ABSOLUTE MONOCYTE / ABSOLUTE SEGMENTED NEUTROPHIL / BASOPHIL / EOSINOPHIL / ERYTHROCYTE COUNT / HEMATOCRIT / HEMOGLOBIN / LEUKOCYTE COUNT / LYMPHOCYTE / MEAN CORPUSCULAR HEMOGLOBIN / MEAN CORPUSCULAR HEMOGLOBIN CONCENTRATION / MEAN CORPUSCULAR VOLUME / MONOCYTE / NEUTROPHIL / NUCLEATED RED BLOOD CELLS / PLATELET COUNT: tissue Blood; for ALANINE AMINOTRANSFERASE / ALBUMIN / ALKALINE PHOSPHATASE / ASPARTATE AMINOTRANSFERASE / BLOOD UREA NITROGEN / CARBON DIOXIDE / CHLORIDE / CHOLESTEROL / CREATINE PHOSPHOKINASE / CREATININE / GLUCOSE / LACTATE DEHYDROGENASE / LIPASE / PHOSPHORUS / POTASSIUM / SODIUM / TOTAL BILIRUBIN / TOTAL PROTEIN / URIC ACID: tissue Plasma
[1] = 0 mg/kg, 72 h, dose level Control, time 3 day
[2] = 0 mg/kg, 120 h, dose level Control, time 5 day
[3] = 50 mg/kg, 72 h, dose level Low, time 3 day

COC(=O)Nc1nc2ccc(C(=O)c3ccccc3)cc2[nH]1 [MEBENDAZOLE]
ABSOLUTE BASOPHIL [1]: 0 CELLS/uL | ABSOLUTE EOSINOPHIL [1]: 0 CELLS/uL | ABSOLUTE LYMPHOCYTE [1]: 9244.83 CELLS/uL | ABSOLUTE MONOCYTE [1]: 102 CELLS/uL | ABSOLUTE SEGMENTED NEUTROPHIL [1]: 869.83 CELLS/uL | BASOPHIL [1]: 0% | EOSINOPHIL [1]: 0% | ERYTHROCYTE COUNT [1]: 5.43 x10E6/uL | HEMATOCRIT [1]: 34.03% | HEMOGLOBIN [1]: 13.27 G/DL | LEUKOCYTE COUNT [1]: 10.22 x10E3/uL | LYMPHOCYTE [1]: 90.33% | MEAN CORPUSCULAR HEMOGLOBIN [1]: 24.48 pg | MEAN CORPUSCULAR HEMOGLOBIN CONCENTRATION [1]: 39.03 G/DL | MEAN CORPUSCULAR VOLUME [1]: 62.75 fL | MONOCYTE [1]: 1% | NEUTROPHIL [1]: 8.67% | NUCLEATED RED BLOOD CELLS [1]: 0.17 /100WBC | PLATELET COUNT [1]: 989 x10E3/uL | ALANINE AMINOTRANSFERASE [1]: 77 u/L | ALBUMIN [1]: 3.97 G/DL | ALKALINE PHOSPHATASE [1]: 464.83 u/L | ASPARTATE AMINOTRANSFERASE [1]: 89.83 u/L | BLOOD UREA NITROGEN [1]: 12.17 mg/dL | CARBON DIOXIDE [1]: 34.17 mmol/L | CHLORIDE [1]: 98.33 MEQ/L | CHOLESTEROL [1]: 75.17 mg/dL | CREATINE PHOSPHOKINASE [1]: 367.67 u/L | CREATININE [1]: 0.16 mg/dL | GLUCOSE [1]: 142.67 mg/dL | LACTATE DEHYDROGENASE [1]: 139.33 u/L | LIPASE [1]: 9.5 u/L | PHOSPHORUS [1]: 10.85 mg/dL | POTASSIUM [1]: 6.38 MEQ/L | SODIUM [1]: 143.2 MEQ/L | TOTAL BILIRUBIN [1]: 0.2 mg/dL | TOTAL PROTEIN [1]: 5.77 G/DL | URIC ACID [1]: 0.7 mg/dL | ABSOLUTE BASOPHIL [2]: 0 CELLS/uL | ABSOLUTE EOSINOPHIL [2]: 0 CELLS/uL | ABSOLUTE LYMPHOCYTE [2]: 8295.33 CELLS/uL | ABSOLUTE MONOCYTE [2]: 84.67 CELLS/uL | ABSOLUTE SEGMENTED NEUTROPHIL [2]: 970 CELLS/uL | BASOPHIL [2]: 0% | EOSINOPHIL [2]: 0% | ERYTHROCYTE COUNT [2]: 5.74 x10E6/uL | HEMATOCRIT [2]: 36.22% | HEMOGLOBIN [2]: 13.85 G/DL | LEUKOCYTE COUNT [2]: 9.35 x10E3/uL | LYMPHOCYTE [2]: 88.67% | MEAN CORPUSCULAR HEMOGLOBIN [2]: 24.13 pg | MEAN CORPUSCULAR HEMOGLOBIN CONCENTRATION [2]: 38.25 G/DL | MEAN CORPUSCULAR VOLUME [2]: 63.08 fL | MONOCYTE [2]: 1% | NEUTROPHIL [2]: 10.33% | NUCLEATED RED BLOOD CELLS [2]: 0.17 /100WBC | PLATELET COUNT [2]: 883.83 x10E3/uL | ALANINE AMINOTRANSFERASE [2]: 64.5 u/L | ALBUMIN [2]: 4.12 G/DL | ALKALINE PHOSPHATASE [2]: 425.67 u/L | ASPARTATE AMINOTRANSFERASE [2]: 88.5 u/L | BLOOD UREA NITROGEN [2]: 14.17 mg/dL | CARBON DIOXIDE [2]: 30.5 mmol/L | CHLORIDE [2]: 100.33 MEQ/L | CHOLESTEROL [2]: 55.33 mg/dL | CREATINE PHOSPHOKINASE [2]: 287.17 u/L | CREATININE [2]: 0.2 mg/dL | GLUCOSE [2]: 162.83 mg/dL | LACTATE DEHYDROGENASE [2]: 111.33 u/L | LIPASE [2]: 10.5 u/L | PHOSPHORUS [2]: 10.32 mg/dL | POTASSIUM [2]: 5.13 MEQ/L | SODIUM [2]: 143.93 MEQ/L | TOTAL BILIRUBIN [2]: 0.17 mg/dL | TOTAL PROTEIN [2]: 5.9 G/DL | URIC ACID [2]: 0.77 mg/dL | ABSOLUTE BASOPHIL [3]: 0 CELLS/uL | ABSOLUTE EOSINOPHIL [3]: 0 CELLS/uL | ABSOLUTE LYMPHOCYTE [3]: 11176.67 CELLS/uL | ABSOLUTE MONOCYTE [3]: 118.33 CELLS/uL | ABSOLUTE SEGMENTED NEUTROPHIL [3]: 1305 CELLS/uL | BASOPHIL [3]: 0% | EOSINOPHIL [3]: 0% | ERYTHROCYTE COUNT [3]: 5.06 x10E6/uL | HEMATOCRIT [3]: 32% | HEMOGLOBIN [3]: 12.6 G/DL | LEUKOCYTE COUNT [3]: 12.6 x10E3/uL | LYMPHOCYTE [3]: 89.33% | MEAN CORPUSCULAR HEMOGLOBIN [3]: 24.93 pg | MEAN CORPUSCULAR HEMOGLOBIN CONCENTRATION [3]: 39.43 G/DL | MEAN CORPUSCULAR VOLUME [3]: 63.27 fL | MONOCYTE [3]: 1% | NEUTROPHIL [3]: 9.67% | NUCLEATED RED BLOOD CELLS [3]: 0 /100WBC | PLATELET COUNT [3]: 983 x10E3/uL | ALANINE AMINOTRANSFERASE [3]: 78 u/L | ALBUMIN [3]: 3.87 G/DL | ALKALINE PHOSPHATASE [3]: 423.67 u/L | ASPARTATE AMINOTRANSFERASE [3]: 86.33 u/L | BLOOD UREA NITROGEN [3]: 12.33 mg/dL | CARBON DIOXIDE [3]: 32 mmol/L | CHLORIDE [3]: 100 MEQ/L | CHOLESTEROL [3]: 74.67 mg/dL | CREATINE PHOSPHOKINASE [3]: 274.33 u/L | CREATININE [3]: 0.25 mg/dL | GLUCOSE [3]: 142.67 mg/dL | LACTATE DEHYDROGENASE [3]: 145 u/L | LIPASE [3]: 11 u/L | PHOSPHORUS [3]: 11.2 mg/dL | POTASSIUM [3]: 5.98 MEQ/L | SODIUM [3]: 144.33 MEQ/L | TOTAL BILIRUBIN [3]: 0.17 mg/dL | TOTAL PROTEIN [3]: 5.53 G/DL | URIC ACID [3]: 0.77 mg/dL
